From patent US20100298141A1, “SUBSTITUTED PYRIDINE N-OXIDE HERBICIDES” (E. I. DU PONT DE NEMOURS AND COMPANY, priority 2007, published 2010)

Tests used:
giant foxtail [1] = experiment: Test A pre-/postemergence greenhouse test; assay type: in vivo, Setaria faberi; settings: for Foxtail, Giant plant response rating: 0 to 100 scale
Method in brief: (§1)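 Sowing in loam/sand; same-day pre (directed soil spray) and post (foliar, 1–2 leaf, 2–10 cm) treatment with surfactant-containing non-phytotoxic solvent formulation; ~10 days in greenhouse; eye-scored injury against untreated plants.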

redroot pigweed = experiment: Test A pre-/postemergence greenhouse test; assay type: in vivo, Amaranthus retroflexus; settings: for Pigweed plant response rating: 0 to 100 scale
Method in brief: as §1

velvetleaf [2] = experiment: Test A pre-/postemergence greenhouse test; assay type: in vivo, Abutilon theophrasti; settings: for Velvetleaf plant response rating: 0 to 100 scale
Method in brief: as §1

wheat = experiment: Test A pre-/postemergence greenhouse test; assay type: in vivo, Triticum aestivum; settings: for Wheat plant response rating: 0 to 100 scale
Method in brief: as §1

corn = experiment: Test A pre-/postemergence greenhouse test; assay type: in vivo, Zea mays; settings: for Corn plant response rating: 0 to 100 scale
Method in brief: as §1

wild oat = experiment: Test C pre-/postemergence test; assay type: in vivo, Avena fatua
Method in brief: (§2)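 Test chemicals were formulated with surfactant in a non-phytotoxic solvent and sprayed both on freshly planted seeds (preemergence) and on 1- to 4-leaf plants of 2–18 cm (postemergence). Flooded-paddy pots received compound directly into 3 cm of standing water, maintained for the test.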

bermudagrass = experiment: Test C pre-/postemergence test; assay type: in vivo, Cynodon dactylon
Method in brief: as §2

Surinam grass = experiment: Test C pre-/postemergence test; assay type: in vivo, Brachiaria decumbens; settings: for Surinam Grass plant response rating: preemergence, scale 0 (no effect) to 100 (complete control)
Method in brief: as §2

giant foxtail [3] = experiment: Test C pre-/postemergence test; assay type: in vivo, Setaria faberii
Method in brief: as §2

Goosegrass = experiment: Test C pre-/postemergence test; assay type: in vivo, Eleusin indica
Method in brief: as §2

johnsongrass = experiment: Test C pre-/postemergence test; assay type: in vivo, Sorghum halepense
Method in brief: as §2

lambsquarters = experiment: Test C pre-/postemergence test; assay type: in vivo, Chenopodium album
Method in brief: as §2

eastern black nightshade = experiment: Test C pre-/postemergence test; assay type: in vivo, Solanum ptycanthum
Method in brief: as §2

common ragweed = experiment: Test C pre-/postemergence test; assay type: in vivo, Ambrosia elation
Method in brief: as §2

velvetleaf [4] = experiment: Test C pre-/postemergence test; assay type: in vivo, Abutilon theophrasti; settings: for Velvetleaf plant response rating: preemergence, scale 0 (no effect) to 100 (complete control)
Method in brief: as §2

rice = experiment: Test C flooded paddy test; assay type: in vivo, Oryza sativa; settings: Flood
Method in brief: (§3)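 Flooded 3 cm over soil; compound into paddy water; depth kept constant. Greenhouse 13–15 d.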

duck salad = experiment: Test C flooded paddy test; assay type: in vivo, Heteranthera limosa; settings: Flood
Method in brief: as §3

barnyardgrass = experiment: Test C flooded paddy test; assay type: in vivo, Echinochloa crus-galli; settings: Flood
Method in brief: as §3

[5] = Postemergence, 125 g ai/ha, 0 is no effect, 100 is complete control
[6] = Postemergence, 500 g ai/ha, 0 is no effect, 100 is complete control
[7] = Preemergence, 125 g ai/ha, 0 no effect, 100 complete control
[8] = Preemergence, 500 g ai/ha, 0 to 100 scale where 0 is no effect and 100 is complete control
[9] = 31 g ai/ha, Preemergence, scale 0 to 100
[10] = 62 g ai/ha, preemergence, scale 0 (no effect) to 100 (complete control)
[11] = preemergence, 125 g ai/ha, scale 0 (no effect) to 100 (complete control)
[12] = 31 g ai/ha, scale 0 to 100 (0 no effect, 100 complete control)
[13] = 62 g ai/ha, scale 0 to 100, 0 no effect, 100 complete control, 13 to 15 days
[14] = 125 g ai/ha, scale 0 to 100, 0 no effect, 100 complete control, 13 to 15 days
[15] = 250 g ai/ha, scale 0 to 100 (0 no effect, 100 complete control)

## Cn1nc(C(F)(F)F)c(C[S+]([O-])c2ccc(Br)c[n+]2[O-])c1OC(F)F (racemic) [Compound 16]
Giant foxtail [1]; [5]
  Foxtail, Giant plant response rating: 80
Giant foxtail [1]; [6]
  Foxtail, Giant plant response rating: 90
Giant foxtail [1]; [7]
  Foxtail, Giant plant response rating: 100
Giant foxtail [1]; [8]
  Plant response rating, Foxtail, Giant: 100
Redroot pigweed; [5]
  Pigweed plant response rating: 20
Redroot pigweed; [6]
  Pigweed plant response rating: 70
Redroot pigweed; [7]
  Pigweed plant response rating: 100
Redroot pigweed; [8]
  Plant response rating, Pigweed: 100
Velvetleaf [2]; [5]
  Velvetleaf plant response rating: 50
Velvetleaf [2]; [6]
  Velvetleaf plant response rating: 90
Velvetleaf [2]; [7]
  Velvetleaf plant response rating: 80
Velvetleaf [2]; [8]
  Plant response rating, Velvetleaf: 100
wheat; [5]
  Wheat plant response rating: 60
wheat; [6]
  Wheat plant response rating: 70
wheat; [7]
  Wheat plant response rating: 60
wheat; [8]
  Plant response rating, Wheat: 80
corn; [5]
  Corn plant response rating: 50
corn; [6]
  Corn plant response rating: 60
corn; [7]
  Corn plant response rating: 0
corn; [8]
  Plant response rating, Corn: 60
Wild oat; [9]
  Oat, Wild plant response rating: 0
Wild oat; [10]
  Oat, Wild plant response rating: 70
Wild oat; Preemergence, 250 g ai/ha
  Plant response rating (0 to 100), Oat, Wild: 80
Wild oat; [11]
  Oat, Wild plant response rating: 75
bermudagrass; [9]
  Bermudagrass plant response rating: 80
bermudagrass; [10]
  Bermudagrass plant response rating: 98
bermudagrass; Preemergence, 250 g ai/ha
  Plant response rating (0 to 100), Bermudagrass: 100
bermudagrass; [11]
  Bermudagrass plant response rating: 100
Surinam grass; 62 g ai/ha
  Surinam Grass plant response rating: 55
Surinam grass; Preemergence, 250 g ai/ha
  Plant response rating (0 to 100), Surinam Grass: 100
Surinam grass; 125 g ai/ha
  Surinam Grass plant response rating: 100
Giant foxtail [3]; [9]
  Foxtail, Giant plant response rating: 80
Giant foxtail [3]; [10]
  Foxtail, Giant plant response rating: 100
Giant foxtail [3]; Preemergence, 250 g ai/ha
  Plant response rating (0 to 100), Foxtail, Giant: 100
Goosegrass; [9]
  Goosegrass plant response rating: 98
Goosegrass; [10]
  Goosegrass plant response rating: 100
Goosegrass; Preemergence, 250 g ai/ha
  Plant response rating (0 to 100), Goosegrass: 100
Goosegrass; [11]
  Goosegrass plant response rating: 100
johnsongrass; [9]
  Johnsongrass plant response rating: 100
johnsongrass; [10]
  Johnsongrass plant response rating: 100
johnsongrass; Preemergence, 250 g ai/ha
  Plant response rating (0 to 100), Johnsongrass: 100
johnsongrass; [11]
  Johnsongrass plant response rating: 100
lambsquarters; [9]
  Lambsquarters plant response rating: 80
lambsquarters; [10]
  Lambsquarters plant response rating: 90
lambsquarters; Preemergence, 250 g ai/ha
  Plant response rating (0 to 100), Lambsquarters: 100
lambsquarters; [11]
  Lambsquarters plant response rating: 100
Eastern black nightshade; [9]
  Nightshade plant response rating: 100
Eastern black nightshade; [10]
  Nightshade plant response rating: 100
Eastern black nightshade; Preemergence, 250 g ai/ha
  Plant response rating (0 to 100), Nightshade: 100
Eastern black nightshade; [11]
  Nightshade plant response rating: 100
Common ragweed; [9]
  Ragweed plant response rating: 10
Common ragweed; [10]
  Ragweed plant response rating: 45
Common ragweed; [11]
  Ragweed plant response rating: 100
Velvetleaf [4]; 62 g ai/ha
  Velvetleaf plant response rating: 100
Velvetleaf [4]; Preemergence, 250 g ai/ha
  Plant response rating (0 to 100), Velvetleaf: 100
Velvetleaf [4]; 125 g ai/ha
  Velvetleaf plant response rating: 100
rice; [12]
  Plant response rating, Rice: 0
rice; [13]
  Plant response rating, Rice: 0
rice; [14]
  Plant response rating, Rice: 0
rice; [15]
  Plant response rating, Rice: 0
Duck salad; [12]
  Plant response rating, Ducksalad: 0
Duck salad; [13]
  Plant response rating, Ducksalad: 0
Duck salad; [14]
  Plant response rating, Ducksalad: 0
Duck salad; [15]
  Plant response rating, Ducksalad: 0
barnyardgrass; [12]
  Plant response rating, Barnyardgrass: 0
barnyardgrass; [13]
  Plant response rating, Barnyardgrass: 0
barnyardgrass; [14]
  Plant response rating, Barnyardgrass: 0
barnyardgrass; [15]
  Plant response rating, Barnyardgrass: 0
